# Laboratory results taken from patent US9920010B2, “CXCR7 receptor modulators” (IDORSIA PHARMACEUTICALS LTD, priority 2013, dated 2018).
# pEC50: −log10 of the molar value.
# Biological target: T1, CXCR7 (Homo sapiens, UniProt P25106)
# T1 construct: host or cells: CHO-K1 (PathHunter CHO-K1 CXCR7 b-arrestin cell line, stably transfected)
# Test: PathHunter CHO-K1 CXCR7 b-arrestin recruitment assay (CXCR7 agonistic activity)
# Format: cell-based
# Conditions: PathHunter CHO-K1 CXCR7 b-arrestin cell line
# Procedure, shortened: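 Stable CHO-K1 line with C-terminally ProLink-tagged CXCR7 and β-arrestin 2–EA fusion; β-arrestin recruitment restores β-gal activity, read by chemiluminescence after 1 h RT detection. Cells seeded 24 h, starved in OPTIMEM 3–4 h, exposed to compounds 90 min at 37 °C in HBSS/HEPES/BSA. Geometric-mean EC50 from repeated measurements.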
# T1 sequence (P25106 whole entry): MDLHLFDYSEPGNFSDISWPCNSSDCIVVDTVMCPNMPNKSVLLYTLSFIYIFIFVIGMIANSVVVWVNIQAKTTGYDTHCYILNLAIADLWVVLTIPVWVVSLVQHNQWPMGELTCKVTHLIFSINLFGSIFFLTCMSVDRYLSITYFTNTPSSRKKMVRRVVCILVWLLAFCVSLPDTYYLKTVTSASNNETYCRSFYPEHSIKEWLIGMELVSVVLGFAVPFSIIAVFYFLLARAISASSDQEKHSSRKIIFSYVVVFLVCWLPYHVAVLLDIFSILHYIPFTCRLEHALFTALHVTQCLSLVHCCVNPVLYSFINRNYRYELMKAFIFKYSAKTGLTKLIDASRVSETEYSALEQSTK
# T1 sequence (P32121 whole entry partner): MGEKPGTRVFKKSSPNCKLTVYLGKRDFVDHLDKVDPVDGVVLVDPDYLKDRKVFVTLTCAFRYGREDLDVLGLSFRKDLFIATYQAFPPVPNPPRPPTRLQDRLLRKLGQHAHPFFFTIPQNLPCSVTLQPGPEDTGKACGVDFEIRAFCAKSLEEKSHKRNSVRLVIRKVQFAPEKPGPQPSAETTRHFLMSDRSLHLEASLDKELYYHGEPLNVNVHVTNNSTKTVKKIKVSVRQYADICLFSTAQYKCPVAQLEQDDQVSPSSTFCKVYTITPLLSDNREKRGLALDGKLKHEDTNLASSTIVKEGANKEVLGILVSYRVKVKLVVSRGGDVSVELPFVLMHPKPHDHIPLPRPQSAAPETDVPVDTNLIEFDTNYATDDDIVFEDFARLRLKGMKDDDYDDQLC
row,pEC50,SMILES
1,8.05,"CCN1CCc2c(CCC(=O)N(CCN(C)C)Cc3ccccc3C(F)(F)F)cccc2C1 [compound 157, N-(2-Dimethylamino-ethyl)-3-(2-ethyl-1,2,3,4-tetrahydro-isoquinolin-5-yl)-N-(2-trifluoromethyl-benzyl)-propionamide]"
2,7.72,"CCC(=O)N1CCc2c(cccc2NCC(=O)N(CCN(CC)CC)Cc2ccccc2)C1 [Example 27, N-Benzyl-N-(2-diethylamino-ethyl)-2-(2-propionyl-1,2,3,4-tetrahydro-isoquinolin-5-ylamino)-acetamide]"
3,7.47,"CN(C)CCN(Cc1ccccc1C(F)(F)F)C(=O)CNc1cccc2c1CN(S(C)(=O)=O)CC2 [Example 544, N-(2-Dimethylamino-ethyl)-2-(2-methanesulfonyl-1,2,3,4-tetrahydro-isoquinolin-8-ylamino)-N-(2-trifluoromethyl-benzyl)-acetamide]"
4,7.10,"CN(CCN(Cc1ccccc1C(F)(F)F)C(=O)CNc1cccc2c1CCN(CC1CC1)C2)CC(F)(F)F [Example 278, 2-(2-Cyclopropylmethyl-1,2,3,4-tetrahydro-isoquinolin-5-ylamino)-N-{2-[methyl-(2,2,2-trifluoro-ethyl)-amino]-ethyl}-N-(2-trifluoromethyl-benzyl)-acetamide]"
5,8.40,"CN(C)CCN(Cc1ncccc1Cl)C(=O)CNc1cccc2c1CCN(CC1CC1)C2 [Example 39, N-(3-Chloro-pyridin-2-ylmethyl)-2-(2-cyclopropylmethyl-1,2,3,4-tetrahydro-isoquinolin-5-ylamino)-N-(2-dimethylamino-ethyl)-acetamide]"
6,7.57,"Cc1ccc(CN(CCN(C)C)C(=O)CNc2cccc3c2CCN(CC2CC2)C3)nc1 [Example 258, 2-(2-Cyclopropylmethyl-1,2,3,4-tetrahydro-isoquinolin-5-ylamino)-N-(2-dimethylamino-ethyl)-N-(5-methyl-pyridin-2-ylmethyl)-acetamide]"
7,7.21,"CCC(=O)N1CCc2c(cccc2NCC(=O)N(CCN(C)C)Cc2cccc(Cl)c2)C1 [Example 18, N-(3-Chloro-benzyl)-N-(2-dimethylamino-ethyl)-2-(2-propionyl-1,2,3,4-tetrahydro-isoquinolin-5-ylamino)-acetamide]"
8,8.30,"Cc1cccc(CN(CCN(C)C)C(=O)CNc2cccc3c2CCN(CC2CC2)C3)n1 [Example 259, 2-(2-Cyclopropylmethyl-1,2,3,4-tetrahydro-isoquinolin-5-ylamino)-N-(2-dimethylamino-ethyl)-N-(6-methyl-pyridin-2-ylmethyl)-acetamide]"
9,7.89,"CN(C)CCN(Cc1ccccc1)C(=O)CNc1cccc2c1CN(CC1CCCCC1)CC2 [compound 194, N-Benzyl-2-(2-cyclohexylmethyl-1,2,3,4-tetrahydro-isoquinolin-8-ylamino)-N-(2-dimethylamino-ethyl)-acetamide]"
10,7.38,"CCN1CCc2cccc(NCC(=O)N(CCN(C)C)Cc3ncccc3F)c2C1 [compound 528, N-(2-Dimethylamino-ethyl)-2-(2-ethyl-1,2,3,4-tetrahydro-isoquinolin-8-ylamino)-N-(3-fluoro-pyridin-2-ylmethyl)-acetamide]"
11,7.64,"CN(C)CCN(Cc1ccccc1C(F)(F)F)C(=O)CNc1ccc(F)c2c1CCN(CC1CC1)C2 [Example 288, 2-(2-Cyclopropylmethyl-8-fluoro-1,2,3,4-tetrahydro-isoquinolin-5-ylamino)-N-(2-dimethylamino-ethyl)-N-(2-trifluoromethyl-benzyl)-acetamide]"
12,6.93,CCN1CCc2cccc(NCC(=O)N(CCN(C)C)Cc3cccc(OC)c3)c2C1 [compound 498]
13,7.16,CN(C)CCN(Cc1ccccc1)C(=O)CNc1cccc2c1CN(C)CC2 [compound 182]
14,8.30,"CN(C)CCN(Cc1ccccc1C(F)(F)F)C(=O)CNc1cccc2c1CN(CC1CCCCC1)CC2 [compound 554, 2-(2-Cyclohexylmethyl-1,2,3,4-tetrahydro-isoquinolin-8-ylamino)-N-(2-dimethylamino-ethyl)-N-(2-trifluoromethyl-benzyl)-acetamide]"
